According to patent EP0214303A1, “DISULFIDE COMPOUNDS AND ANTINEOPLASTIC AGENTS” (priority 1985, dated 1986):

Experiments:
peripheral leukocytes = assay: Effect on the peripheral leucocytes number (WBC4000); assay type: in vivo, ddY mice; settings: statement in words on Table 2 (image); comparison with control compounds A, B, C, D where stated; intraperitoneal, 4 days after administration
Protocol: (4) Effect on the peripheral leucocytes number: • Sarcoma 180 solid tumor cells […] were subcutaneously implanted into the right axilla of each mouse (body weight 20 ±2 g) of a group consisting of 5 male mice (ddY strain). 24 hours after implantation, a test compound was intraperitoneally administered to each animal. 4 days after the administration, blood (each 0.02 ml) was collected from the suborbital plexus vein of each tumor-carrying animal. The collected sample of blood was dispersed in 9.98 ml of Cell-Kit Seven solution. One drop of saponin solution was added to the sample to dissolve erythrocytes and then a microcell counter was used to count the number of leucocytes. On graph paper, the number of leucocytes was indicated by an arithmetic scale on the longitudinal axis and the dose of the test compound was indicated by a logarithmic scale on the lateral axis. The relationship between the number of peripheral leucocytes and the dose of the test compound was plotted and the dose (i.e., WBC4000) corresponding to 4000 peripheral leucocytes/mm3 (about half the number of leucocytes of normal mice) was obtained.

[1] = pH 7

Structure (SMILES)	WBC4000 (dosage reducing the peripheral leukocytes to 4000/mm3) (peripheral leukocytes)	also measured
COC12C(COC(N)=O)C3=C(C(=O)C(C)=C(NCCCCSSCCCCNC4=C(C)C(=O)C5=C(C4=O)C(COC(N)=O)C4(OC)C6NC6CN54)C3=O)N1CC1NC12 (stereo not drawn) [Compound 4, 7-N,7'-N'-(dithioditetramethylene) dimitomycin C]	considerably increased	
COC12C(COC(N)=O)C3=C(C(=O)C(C)=C(NCCCCCCSSCCCCCCNC4=C(C)C(=O)C5=C(C4=O)C(COC(N)=O)C4(OC)C6NC6CN54)C3=O)N1CC1NC12 (stereo not drawn) [Compound 8, 7-N,7'-N'-(dithiodihexamethylene) dimitomycin C]	considerably increased	
COC12C(COC(N)=O)C3=C(C(=O)C(C)=C(NCCCSSCCCNC4=C(C)C(=O)C5=C(C4=O)C(COC(N)=O)C4(OC)C6NC6CN54)C3=O)N1CC1NC12 (stereo not drawn) [Compound 1, 7-N,7'-N'-(dithioditrimethylene) dimitomycin C]	considerably increased	
CO[C@@]12[C@H](COC(N)=O)C3=C(C(=O)C(C)=C(NCCCCSSC[C@H](N)C(=O)NCC(=O)O)C3=O)N1C[C@@H]1N[C@@H]12 [Compound 27]		solubility: > 39 mg/mL
COC12C(COC(N)=O)C3=C(C(=O)C(C)=C(NCCCCCCCCSSCCCCCCCCNC4=C(C)C(=O)C5=C(C4=O)C(COC(N)=O)C4(OC)C6NC6CN54)C3=O)N1CC1NC12 (stereo not drawn) [Compound 10, 7-N,7'-N'-(dithiodioctamethylene) dimitomycin C]		solubility (result in words) [1]: scarcely soluble in water
COC12C(COC(N)=O)C3=C(C(=O)C(C)=C(NCCCCSSCC(O)CO)C3=O)N1CC1NC12 (stereo not drawn) [Compound 26, 7-N-[4-(2,3-dihydroxypropyldithio)butyl] mitomycin C]	considerably increased	
